Reference: ChEMBL document CHEMBL3352227, “Synthesis, antimycobacterial and antibacterial evaluation of l-[(1R, 2S)-2-fluorocyclopropyl]fluoroquinolone derivatives containing an oxime functional moiety” (Eur J Med Chem, 2014)
In brackets after ≈: the same amount, converted by molar mass.

system: Klebsiella pneumoniae; assay: Antibacterial activity against Klebsiella pneumoniae 12-4 after 18 to 24 hrs by standard twofold serial dilution method; assay type: functional

SMILES | MIC [µg/mL]
CO/N=C1/CN(c2cc3c(cc2F)c(=O)c(C(=O)O)cn3[C@@H]2C[C@@H]2F)CC1CN (some centres not stated) | 0.25 (≈ 0.615 µM)

system: Klebsiella pneumoniae; assay: Antibacterial activity against Klebsiella pneumoniae 12-2 after 18 to 24 hrs by standard twofold serial dilution method; assay type: functional

SMILES | MIC [µg/mL]
CO/N=C1/CN(c2cc3c(cc2F)c(=O)c(C(=O)O)cn3[C@@H]2C[C@@H]2F)CC1CN (some centres not stated) | 0.25 (≈ 0.615 µM)

system: Staphylococcus epidermidis; assay: Antibacterial activity against methicillin-sensitive Staphylococcus epidermidis 12-8 after 18 to 24 hrs by standard twofold serial dilution method; assay type: functional

SMILES | MIC [µg/mL]
CO/N=C1/CN(c2cc3c(cc2F)c(=O)c(C(=O)O)cn3[C@@H]2C[C@@H]2F)CC1CN (some centres not stated) | 0.25 (≈ 0.615 µM)

system: Staphylococcus epidermidis; assay: Antibacterial activity against methicillin-sensitive Staphylococcus epidermidis 12-6 after 18 to 24 hrs by standard twofold serial dilution method; assay type: functional

SMILES | MIC [µg/mL]
CO/N=C1/CN(c2cc3c(cc2F)c(=O)c(C(=O)O)cn3[C@@H]2C[C@@H]2F)CC1CN (some centres not stated) | 0.125 (≈ 0.308 µM)

system: Escherichia coli; assay: Antibacterial activity against extended-spectrum beta-lactamase producing Escherichia coli 12-14 after 18 to 24 hrs by standard twofold serial dilution method; assay type: functional

SMILES | MIC [µg/mL]
CO/N=C1/CN(c2cc3c(cc2F)c(=O)c(C(=O)O)cn3[C@@H]2C[C@@H]2F)CC1CN (some centres not stated) | 32 (≈ 78.7 µM)

system: Staphylococcus epidermidis; assay: Antibacterial activity against methicillin-sensitive Staphylococcus epidermidis 12-1 after 18 to 24 hrs by standard twofold serial dilution method; assay type: functional

SMILES | MIC [µg/mL]
CO/N=C1/CN(c2cc3c(cc2F)c(=O)c(C(=O)O)cn3[C@@H]2C[C@@H]2F)CC1CN (some centres not stated) | 0.06 (≈ 0.148 µM)

system: Escherichia coli; assay: Antibacterial activity against extended-spectrum beta-lactamase producing Escherichia coli 12-15 after 18 to 24 hrs by standard twofold serial dilution method; assay type: functional

SMILES | MIC [µg/mL]
CO/N=C1/CN(c2cc3c(cc2F)c(=O)c(C(=O)O)cn3[C@@H]2C[C@@H]2F)CC1CN (some centres not stated) | 128 (≈ 315 µM)

system: Klebsiella pneumoniae; assay: Antibacterial activity against extended-spectrum beta-lactamase producin Klebsiella pneumoniae 12-3 after 18 to 24 hrs by standard twofold serial dilution method; assay type: functional

SMILES | MIC [µg/mL]
CO/N=C1/CN(c2cc3c(cc2F)c(=O)c(C(=O)O)cn3[C@@H]2C[C@@H]2F)CC1CN (some centres not stated) | 32 (≈ 78.7 µM)

system: Staphylococcus epidermidis; assay: Antibacterial activity against methicillin-sensitive Staphylococcus epidermidis 12-3 after 18 to 24 hrs by standard twofold serial dilution method; assay type: functional

SMILES | MIC [µg/mL]
CO/N=C1/CN(c2cc3c(cc2F)c(=O)c(C(=O)O)cn3[C@@H]2C[C@@H]2F)CC1CN (some centres not stated) | 0.06 (≈ 0.148 µM)

system: Staphylococcus aureus; assay: Antibacterial activity against methicillin-resistant Staphylococcus aureus 12-4 after 18 to 24 hrs by standard twofold serial dilution method; assay type: functional

SMILES | MIC [µg/mL]
CO/N=C1/CN(c2cc3c(cc2F)c(=O)c(C(=O)O)cn3[C@@H]2C[C@@H]2F)CC1CN (some centres not stated) | 4 (≈ 9.84 µM)

system: Pseudomonas aeruginosa; assay: Antibacterial activity against Pseudomonas aeruginosa 12-12 after 18 to 24 hrs by standard twofold serial dilution method; assay type: functional

SMILES | MIC [µg/mL]
CO/N=C1/CN(c2cc3c(cc2F)c(=O)c(C(=O)O)cn3[C@@H]2C[C@@H]2F)CC1CN (some centres not stated) | 2 (≈ 4.92 µM)

system: Klebsiella pneumoniae; assay: Antibacterial activity against extended-spectrum beta-lactamase producin Klebsiella pneumoniae 12-7 after 18 to 24 hrs by standard twofold serial dilution method; assay type: functional

SMILES | MIC [µg/mL]
CO/N=C1/CN(c2cc3c(cc2F)c(=O)c(C(=O)O)cn3[C@@H]2C[C@@H]2F)CC1CN (some centres not stated) | 1 (≈ 2.46 µM)

system: Klebsiella pneumoniae; assay: Antibacterial activity against extended-spectrum beta-lactamase producin Klebsiella pneumoniae 12-14 after 18 to 24 hrs by standard twofold serial dilution method; assay type: functional

SMILES | MIC [µg/mL]
CO/N=C1/CN(c2cc3c(cc2F)c(=O)c(C(=O)O)cn3[C@@H]2C[C@@H]2F)CC1CN (some centres not stated) | 64 (≈ 157 µM)

system: Escherichia coli; assay: Antibacterial activity against Escherichia coli ATCC 25922 after 18 to 24 hrs by standard twofold serial dilution method; assay type: functional

SMILES | MIC [µg/mL]
CO/N=C1/CN(c2cc3c(cc2F)c(=O)c(C(=O)O)cn3[C@@H]2C[C@@H]2F)CC1CN (some centres not stated) | 0.03 (≈ 0.0738 µM)

system: Staphylococcus aureus; assay: Antibacterial activity against methicillin-sensitive Staphylococcus aureus 12-5 after 18 to 24 hrs by standard twofold serial dilution method; assay type: functional

SMILES | MIC [µg/mL]
CO/N=C1/CN(c2cc3c(cc2F)c(=O)c(C(=O)O)cn3[C@@H]2C[C@@H]2F)CC1CN (some centres not stated) | 0.125 (≈ 0.308 µM)

system: Streptococcus pneumoniae; assay: Antibacterial activity against Streptococcus pneumoniae ATCC 49619 after 18 to 24 hrs by standard twofold serial dilution method; assay type: functional

SMILES | MIC [µg/mL]
CO/N=C1/CN(c2cc3c(cc2F)c(=O)c(C(=O)O)cn3[C@@H]2C[C@@H]2F)CC1CN (some centres not stated) | 0.03 (≈ 0.0738 µM)

system: Mycobacterium tuberculosis; assay: Antimycobacterial activity against Mycobacterium tuberculosis H37Rv ATCC 27294 by MABA method; assay type: functional

SMILES | MIC [µg/mL]
CO/N=C1/CN(c2cc3c(cc2F)c(=O)c(C(=O)O)cn3[C@@H]2C[C@@H]2F)CC1CN (some centres not stated) | 1 (≈ 2.46 µM)

system: Staphylococcus aureus; assay: Antibacterial activity against methicillin-resistant Staphylococcus aureus 12-2 after 18 to 24 hrs by standard twofold serial dilution method; assay type: functional

SMILES | MIC [µg/mL]
CO/N=C1/CN(c2cc3c(cc2F)c(=O)c(C(=O)O)cn3[C@@H]2C[C@@H]2F)CC1CN (some centres not stated) | 16 (≈ 39.4 µM)

system: Streptococcus pneumoniae; assay: Antibacterial activity against Streptococcus pneumoniae 12-18 after 18 to 24 hrs by standard twofold serial dilution method; assay type: functional

SMILES | MIC [µg/mL]
CO/N=C1/CN(c2cc3c(cc2F)c(=O)c(C(=O)O)cn3[C@@H]2C[C@@H]2F)CC1CN (some centres not stated) | 0.25 (≈ 0.615 µM)

system: Klebsiella pneumoniae; assay: Antibacterial activity against extended-spectrum beta-lactamase producin Klebsiella pneumoniae 12-4 after 18 to 24 hrs by standard twofold serial dilution method; assay type: functional

SMILES | MIC [µg/mL]
CO/N=C1/CN(c2cc3c(cc2F)c(=O)c(C(=O)O)cn3[C@@H]2C[C@@H]2F)CC1CN (some centres not stated) | 16 (≈ 39.4 µM)

system: Staphylococcus aureus; assay: Antibacterial activity against methicillin-sensitive Staphylococcus aureus 12-1 after 18 to 24 hrs by standard twofold serial dilution method; assay type: functional

SMILES | MIC [µg/mL]
CO/N=C1/CN(c2cc3c(cc2F)c(=O)c(C(=O)O)cn3[C@@H]2C[C@@H]2F)CC1CN (some centres not stated) | 0.125 (≈ 0.308 µM)

system: Staphylococcus epidermidis; assay: Antibacterial activity against methicillin-resistant Staphylococcus epidermidis 12-6 after 18 to 24 hrs by standard twofold serial dilution method; assay type: functional

SMILES | MIC [µg/mL]
CO/N=C1/CN(c2cc3c(cc2F)c(=O)c(C(=O)O)cn3[C@@H]2C[C@@H]2F)CC1CN (some centres not stated) | 0.125 (≈ 0.308 µM)

system: Klebsiella pneumoniae; assay: Antibacterial activity against Klebsiella pneumoniae 12-1 after 18 to 24 hrs by standard twofold serial dilution method; assay type: functional

SMILES | MIC [µg/mL]
CO/N=C1/CN(c2cc3c(cc2F)c(=O)c(C(=O)O)cn3[C@@H]2C[C@@H]2F)CC1CN (some centres not stated) | 0.25 (≈ 0.615 µM)

system: Staphylococcus aureus; assay: Antibacterial activity against methicillin-sensitive Staphylococcus aureus 12-4 after 18 to 24 hrs by standard twofold serial dilution method; assay type: functional

SMILES | MIC [µg/mL]
CO/N=C1/CN(c2cc3c(cc2F)c(=O)c(C(=O)O)cn3[C@@H]2C[C@@H]2F)CC1CN (some centres not stated) | 0.06 (≈ 0.148 µM)

system: Staphylococcus aureus; assay: Antibacterial activity against methicillin-resistant Staphylococcus aureus 12-5 after 18 to 24 hrs by standard twofold serial dilution method; assay type: functional

SMILES | MIC [µg/mL]
CO/N=C1/CN(c2cc3c(cc2F)c(=O)c(C(=O)O)cn3[C@@H]2C[C@@H]2F)CC1CN (some centres not stated) | 8 (≈ 19.7 µM)

system: Escherichia coli; assay: Antibacterial activity against Escherichia coli 12-1 after 18 to 24 hrs by standard twofold serial dilution method; assay type: functional

SMILES | MIC [µg/mL]
CO/N=C1/CN(c2cc3c(cc2F)c(=O)c(C(=O)O)cn3[C@@H]2C[C@@H]2F)CC1CN (some centres not stated) | 0.25 (≈ 0.615 µM)

system: Staphylococcus aureus; assay: Antibacterial activity against Staphylococcus aureus ATCC 25923 after 18 to 24 hrs by standard twofold serial dilution method; assay type: functional

SMILES | MIC [µg/mL]
CO/N=C1/CN(c2cc3c(cc2F)c(=O)c(C(=O)O)cn3[C@@H]2C[C@@H]2F)CC1CN (some centres not stated) | < 0.008

system: Pseudomonas aeruginosa; assay: Antibacterial activity against Pseudomonas aeruginosa 12-14 after 18 to 24 hrs by standard twofold serial dilution method; assay type: functional

SMILES | MIC [µg/mL]
CO/N=C1/CN(c2cc3c(cc2F)c(=O)c(C(=O)O)cn3[C@@H]2C[C@@H]2F)CC1CN (some centres not stated) | 2 (≈ 4.92 µM)

system: Escherichia coli; assay: Antibacterial activity against extended-spectrum beta-lactamase producing Escherichia coli 12-3 after 18 to 24 hrs by standard twofold serial dilution method; assay type: functional

SMILES | MIC [µg/mL]
CO/N=C1/CN(c2cc3c(cc2F)c(=O)c(C(=O)O)cn3[C@@H]2C[C@@H]2F)CC1CN (some centres not stated) | 32 (≈ 78.7 µM)

system: Staphylococcus aureus; assay: Antibacterial activity against methicillin-sensitive Staphylococcus aureus 12-2 after 18 to 24 hrs by standard twofold serial dilution method; assay type: functional

SMILES | MIC [µg/mL]
CO/N=C1/CN(c2cc3c(cc2F)c(=O)c(C(=O)O)cn3[C@@H]2C[C@@H]2F)CC1CN (some centres not stated) | 0.125 (≈ 0.308 µM)

system: Staphylococcus epidermidis; assay: Antibacterial activity against methicillin-resistant Staphylococcus epidermidis 12-1 after 18 to 24 hrs by standard twofold serial dilution method; assay type: functional

SMILES | MIC [µg/mL]
CO/N=C1/CN(c2cc3c(cc2F)c(=O)c(C(=O)O)cn3[C@@H]2C[C@@H]2F)CC1CN (some centres not stated) | 2 (≈ 4.92 µM)

system: Escherichia coli; assay: Antibacterial activity against extended-spectrum beta-lactamase producing Escherichia coli 12-2 after 18 to 24 hrs by standard twofold serial dilution method; assay type: functional

SMILES | MIC [µg/mL]
CO/N=C1/CN(c2cc3c(cc2F)c(=O)c(C(=O)O)cn3[C@@H]2C[C@@H]2F)CC1CN (some centres not stated) | 128 (≈ 315 µM)
